Source: patent US20240156902A1, “METHODS OF TREATING NEURODEGENERATIVE DISORDERS WITH INTRANASAL NF-KAPPAB ESSENTIAL MODIFIER (NEMO)-BINDING DOMAIN (NBD) PEPTIDE” (Rush University Medical Center, priority 2021, published 2024)
Like-named read-outs stand apart in the source and are kept apart here.

What was measured:
[1] = tested on: NF-κB; conditions: cultured brain cells; cited from earlier work
[2] = tested on: NF-κB; conditions: in vivo in the brain; cited from earlier work
[3] = tested on: NF-κB; test: NF-κB activation in nigra of PFF-seeded A53T mice (acetylated p65 in microglia); format: in vivo, mouse; conditions: intranasal 0.1 mg/kg/d for 1 month
Description: (§1) Following 2 months of surgery, animals received wild type NBD (wtNBD) at a dose of 0.1 mg/kg body weight/day intranasally. After 1 month of wtNBD treatment, behavioral analyses were performed followed by immunohistochemistry and different biochemical experiments.
FIG. 2A and FIG. 2B show the results following intranasal administration of wtNBD peptide inhibiting NF-κB activation in the nigra of PFF-seeded mouse model of Lewy body diseases. A53T transgenic mice were seeded with PFF bilaterally and following 2 months of brain surgery, animals were given intranasal administration of 0.1 mg/kg wtNBD peptide daily. Activation of NF-κB in nigra was monitored by evaluating the level of acetylated (K310) p65 in Ibal+ve microglia in different groups of mice. Marked up-regulation of microglial acetylated p65 level in the SN of PFF-seeded mice was found compared to the PBS-injected mice (FIG. 2A and FIG. 2B). […] Statistical significance was determined by one-way ANOVA followed by Tukey's multiple comparison tests. *p<0.05, ***p<0.001 indicate significance compared to respective groups. Values are given as mean±SEM (n=4 per group). […]
(§2) Following 1 month of wtNBD administration, NF-κB activation in substantia nigra (SN) and spreading of α-syn in both SN and motor cortex were monitored. […]

[4] = tested on: α-syn; test: α-syn spreading from striatum to nigra and motor cortex in PFF-seeded A53T mice (pSyn129 immunostaining, α-syn immunoblot); format: in vivo, mouse; conditions: intranasal 0.1 mg/kg/d for 1 month
Description: as §1
Propagation of α-syn in PFF-seeded A53T mouse brain was monitored in SN by pSyn129 immunostaining and relative intensity measurement (FIG. 3A, FIG. 3B) and also by immunoblotting total α-syn in Triton X-100 soluble and insoluble fractions (FIG. 3C, FIG. 3D). The ratio of α-syn to actin is shown in the diagrams (FIG. 3E, FIG. 3F). Level of pSyn129 in motor cortex was assessed by immunohistochemistry (FIG. 3G, FIG. 3H). Two sections from each brain were used for immunostaining and pSyn129 specific intensity was analysed by Fiji. One-way ANOVA followed by Tukey's multiple comparison tests was conducted for statistical analyses. **p<0.01, ***p<0.001 indicate significance compared to respective groups. Values are given as mean±SEM (n=4 animals per group).
(§3) The wtNBD peptide (SEQ ID NO: 4) was solubilized in normal saline in such a way so that each mouse receives 0.1 mg/kg of body weight NBD peptide in 2.5 μl of saline. […]
as §2

[5] = tested on: dopaminergic neurons; test: Parkinsonian pathology in PFF-seeded A53T mice (TH immunohistochemistry, TH immunoblot, striatal neurotransmitters); format: in vivo, mouse; conditions: intranasal 0.1 mg/kg/d for 1 month
Description: (§4) FIG. 4A-L depicts the results following intranasal administration of wtNBD peptide reducing Parkinsonian pathology in PFF-seeded mouse model of Lewy body diseases. PFF-seeded A53T animals were given intranasal administration of 0.1 mg/kg wtNBD peptide daily for one month Parkinsonian pathology was evaluated by TH immunohistochemistry of nigral sections (FIG. 4A), immunoblotting of total TH level in SN (FIG. 4B and FIG. 4C), assessing striatal level of dopamine (DA), and its metabolites 3,4-dihydroxyphenyl acetate (DOPAC), homovanillic acid (HVA) (FIG. 4D-F). Behavioral analyses of animals were performed by open field test (FIG. 4G), where movement parameters such as distance (FIG. 4H), velocity (FIG. 4I), cumulative duration (FIG. 4J) and rearings (FIG. 4K) were recorded. Feet movement was analysed by rotarod test (FIG. 4L). Statistical significance was determined by one-way ANOVA followed by Tukey's multiple comparison tests. *p<0.05, **p<0.01, ***p<0.001 indicate significance compared to respective groups. Values are given as mean±SEM (n=4 per group).
The wtNBD peptide (SEQ ID NO: 4) was solubilized in normal saline in such a way so that each mouse receives 0.1 mg/kg of body weight NBD peptide in 2.5 μl of saline. Then 2.5 μl of wtNBD solution was administered in mice through each nostril every day for a total of 30 days. Mice were hold in supine condition while administering wtNBD solution. See Rangasamy et al. “Selective disruption of TLR2-MyD88 interaction inhibits inflammation and attenuates Alzheimer's pathology” (2018) J Clin Invest 128, 4297-4312. Intranasal treatment was started for preformed α-syn fibril (PFF) or PBS injected A53T animals at the age of 5 months (2 months following the brain surgery) for the next 30 days. Aged A53T animals (8 months old) were also treated with wtNBD peptides for 1 month followed by behavioural tests and other experiments at the age of 9 months.
Next, the effect of intranasal wtNBD on PFF-induced Parkinsonian pathologies was monitored. […] Locomotor deficit was also evident by rotarod analysis (FIG. 4L).

[6] = tested on: PFF-seeded A53T transgenic mice; test: Locomotor activities of PFF-seeded A53T mice (open field test, rotarod); format: in vivo, mouse; conditions: intranasal 0.1 mg/kg/d for 1 month
Description: as §4, §3
Next, the effect of intranasal wtNBD on PFF-induced Parkinsonian pathologies was monitored. […]

[7] = in vivo; cited from earlier work

LDWSWL [truncated hexapeptide of the wtNBD]
block of the function of NF-κB [1]: sufficient to block
block of the function of NF-κB [2]: sufficient to block

DRQIKIWFQNRRMKWKKLDWSWL (DRQIKWFQNRRMKWKKLDWSWL) [wtNBD]
microglial acetylated (K310) p65 level in the SN [3]: significantly decreased
level of pSyn129 in nigral neurons (relative optical density in SN) ([4]; PFF-seeded A53T mice): drastically reduced
accumulation of pSyn129 in cortical neurons (motor cortex) ([4]; compared to saline-treated PFF-seeded mice): reduced accumulation
nigral TH neurons [5]: significantly protected
nigral TH protein level [5]: significantly protected
striatal DA level [5]: significantly protected
movement deficits (open field distance, velocity, cumulative duration, rearing; rotarod) [6]: significantly inhibited
entry into the brain [7]: enters into the brain
